Legend:
[1] = target: T1, cloned human MT2 receptors (Homo sapiens, UniProt P49286); assay: [35S]GTPγS binding assay, NIH3T3 cells expressing human MT2; assay type: biochemical; conditions: for MT2 IAr ± SEM (relative intrinsic activity): maximal net effect relative to MLT; as to MT2 Activity: key: A = agonist; PA = partial agonist; ANT = antagonist; IA = Inverse agonist
T1 construct: expressed in transfected cells
T1 sequence (P49286 1-362): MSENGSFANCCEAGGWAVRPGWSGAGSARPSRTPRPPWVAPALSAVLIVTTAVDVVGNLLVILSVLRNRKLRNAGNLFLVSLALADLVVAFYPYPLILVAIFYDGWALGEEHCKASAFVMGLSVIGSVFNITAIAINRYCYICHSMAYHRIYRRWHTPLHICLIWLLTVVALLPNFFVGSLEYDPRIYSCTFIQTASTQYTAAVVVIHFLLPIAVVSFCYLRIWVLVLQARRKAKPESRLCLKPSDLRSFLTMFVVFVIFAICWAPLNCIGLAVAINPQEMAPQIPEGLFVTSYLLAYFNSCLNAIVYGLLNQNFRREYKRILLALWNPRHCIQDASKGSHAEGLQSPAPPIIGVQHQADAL
Protocol: (§1) Membranes were incubated for 90 min at 37° C. in binding buffer (Tris/HCl 50 mM, pH 7.4). The final membrane concentration was 5-10 μg of protein per tube. […] The pKi values are the mean of at least three independent determinations performed in duplicate. To define the functional activity of the compounds of Formula (I) at the MT1 and MT2 receptor subtypes, [^35S]GTPγS binding assays in NIH3T3 cells expressing human-cloned MT1 or MT2 receptors were performed. The amount of bound [^35S]GTPγS is proportional to the level of analogue-induced G-protein activation and is related to the intrinsic activity of the compound (i.e. a compound of Formula (I)) under study. […] Nonspecific binding was assessed using non-radiolabeled GTPγS (10 μM). […] Basal stimulation is the amount of [^35S]GTPγS specifically bound in the absence of the compounds of Formula (I) and was taken as 100%. […] All of the measurements were performed in triplicate.

[2] = target: T1, cloned human MT2 receptors; assay: 2-[125I]iodomelatonin competition binding, human MT2 in NIH3T3 cells; conditions: human MT2 in NIH3T3 cells, calculated from IC50 by Cheng-Prusoff, mean of at least three determinations
Protocol: as §1

[3] = target: T2, cloned human MT1 receptors (Homo sapiens, UniProt P48039); assay: 2-[125I]iodomelatonin competition binding, human MT1 in NIH3T3 cells; conditions: calculated from IC50 by Cheng-Prusoff, mean of at least three determinations
T2 construct: expressed in transfected cells
Protocol: as §1

[4] = target: T2, cloned human MT1 receptors; assay: [35S]GTPγS binding assay, NIH3T3 cells expressing human MT1; assay type: biochemical; conditions: for MT1 IAr ± SEM (relative intrinsic activity): maximal net effect relative to MLT; as to MT1 Activity: key: A = agonist; PA = partial agonist; ANT = antagonist; IA = Inverse agonist
Protocol: as §1

T2 sequence (P48039 whole entry): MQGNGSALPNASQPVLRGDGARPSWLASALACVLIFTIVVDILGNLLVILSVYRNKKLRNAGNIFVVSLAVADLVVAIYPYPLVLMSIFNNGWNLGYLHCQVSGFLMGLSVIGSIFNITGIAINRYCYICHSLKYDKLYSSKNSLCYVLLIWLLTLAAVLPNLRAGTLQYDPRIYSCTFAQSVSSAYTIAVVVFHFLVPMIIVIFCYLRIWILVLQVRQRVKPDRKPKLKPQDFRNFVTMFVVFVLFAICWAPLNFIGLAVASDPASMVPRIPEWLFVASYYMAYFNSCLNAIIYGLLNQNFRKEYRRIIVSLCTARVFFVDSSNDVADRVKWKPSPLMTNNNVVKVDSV

Row | Compound | MT2 Activity [1] | MT2 IAr ± SEM (relative intrinsic activity) [1] | MT2 pKi [2] | MT1 pKi [3] | MT1 IAr ± SEM (relative intrinsic activity) [4] | Ki ([3]; read-out: MT1 pKi (converted)) | Ki ([2]; read-out: MT2 pKi (converted)) | MT1 Activity [4]
1 | CC(=O)NCCN(c1ccccc1)c1cccc(OCCCCc2ccccc2)c1 [5i] | ANT | 0.01 ± 0.01 | 6.48 ± 0.29 | 7.45 ± 0.01 | 0.12 ± 0.02 | – | – | ANT
2 | CC(=O)NCCN(c1ccccc1)c1cccc(Br)c1 [5f, N-{2-[(3-bromophenyl)-phenylamino]ethyl}acetamide] | – | 0.36 ± 0.01 | 9.70 ± 0.43 | 7.77 ± 0.19 | 0.43 ± 0.04 | – | – | –
3 | COc1cccc(NCCNC(C)=O)c1 [5l, N-[2{(3-Methoxyphenyl)-amino]ethyl}acetamide] | – | 0.94 ± 0.03 | – | 8.28 ± 0.01 | 0.84 ± 0.01 | – | 7.59 nM | –
4 | COc1cccc(N(CCNC(C)=O)Cc2ccccc2)c1 [5k, N-{2-[(3-Methoxyphenyl)-benzylamino]ethyl}acetamide] | – | 0.31 ± 0.02 | 9.12 ± 0.05 | 7.30 ± 0.10 | 0.92 ± 0.06 | – | – | –
5 | COc1cccc(N(CCNC(C)=O)c2ccc3ccccc3c2)c1 [5g, N-{2-[(3-Methoxyphenyl)-β-naphthylamino]ethyl}acetamide] | – | −0.20 ± 0.03 | 9.95 ± 0.64 | 6.88 ± 0.07 | 0.17 ± 0.03 | – | – | ANT
6 | COc1ccc(N(CCNC(C)=O)c2cccc(OC)c2)cc1 [5d, N-{2-[(4-Methoxyphenyl)-3-methoxyphenylamino]ethyl}acetamide] | ANT | 0.03 ± 0.01 | 9.06 ± 0.10 | 7.00 ± 0.01 | 0.06 ± 0.03 | – | – | ANT
7 | COc1cccc(N(CCNC(C)=O)c2cccc(OC)c2)c1 [5c, N-[2-(bis-3-methoxyphenylamino)ethyl]acetamide] | ANT | 0.15 ± 0.01 | 10.56 ± 0.10 | 7.72 ± 0.13 | 0.59 ± 0.05 | – | – | –

Continued, in another order:

Row | MT2 Activity [1] | MT2 IAr ± SEM (relative intrinsic activity) [1] | MT2 pKi [2] | MT1 pKi [3] | MT1 IAr ± SEM (relative intrinsic activity) [4] | Ki ([3]; read-out: MT1 pKi (converted)) | Ki ([2]; read-out: MT2 pKi (converted)) | Compound | MT1 Activity [4]
8 | – | 0.29 ± 0.01 | 8.43 ± 0.40 | – | 0.22 ± 0.01 | 331 nM | – | COc1cccc(N(CCNC(=O)C2CCC2)c2ccccc2)c1 [5o, N-{2-[(3-Methoxyphenyl)-phenylamino]ethyl}cyclobutancarboxamide] | –
9 | – | 1.07 ± 0.06 | 8.70 ± 0.26 | 9.08 ± 0.04 | 0.87 ± 0.05 | – | – | COc1cccc(N(C)CCCNC(C)=O)c1 [5m, N-{3-[(3-Methoxyphenyl)-methylamino]propyl}acetamide] | –
10 | ANT | −0.01 ± 0.03 | 7.28 ± 0.06 | 5.89 ± 0.07 | −0.01 ± 0.03 | – | – | COc1cccc(N(CCN(C)C(C)=O)c2ccccc2)c1 [compound 6] | ANT
